The test system of one data set is NCI-H358. In words: cells. The note with it: Homo sapiens.
Data set [1] addresses Son of sevenless homolog 1 (Homo sapiens, UniProt Q07889, G12C). The data set is described as follows: Binding affinity to recombinant human His10-tagged SOS1 (564 to 1049 residues) assessed as inhibition of GST-tagged human KRAS G12C mutant (1 to 169 residues) interaction with SOS1 preincubated for 15 mins followed by KRAS addition and measured after 2 hrs by FRET assay.
A short description of data set [2]: Unbound clearance in BALB/c mouse at 5 mg/kg, po via gavage or 1 mg/kg, iv administered as bolus dose by LC-MS/MS analysis. Format: ADME, organism-based. The note with it: in vivo.
Data set [3] can be described thus: Intrinsic clearance in mouse liver microsomes at 1 uM measured after 0.5 to 30 mins in presence of NADPH by LC-MS/MS analysis. The note with it: time 0.5-30 min, read-out: CLH. Format: ADME, Microsome.
Data set [4] is described as follows: Volume of distribution at steady state in BALB/c mouse at 1 mg/kg, iv administered as bolus dose by LC-MS/MS analysis. Type of data set: ADME, organism-based. The note with it: in vivo, read-out: Vdss.
Data set [5] in a line: Lipophilicity, log D of the compound in octanol/phosphate buffer at pH 7.4 measured after 2 hrs by LC-MS/MS based shake flask method. Type of data set: physicochemical.
The nature of data set [6]: Kinetic solubility of the compound in pH 7.4 phosphate buffered saline at 300 uM measured after 2 hrs by LC-MS/MS analysis. Type of data set: physicochemical. The note with it: read-out: Kinetic_solubility.
For data set [7], the target named is Voltage-gated inwardly rectifying potassium channel KCNH2 (Homo sapiens, UniProt Q12809). The data set is described as follows: Inhibition of human ERG stably transfected in HEK293 cells by manual patch-clamp assay. Type of data set: toxicity, cell-based. On the technique in general: The patch-clamp technique gives a direct electrical read-out from membranes.

Data set [8] is described as follows: Intrinsic clearance in human liver microsomes at 1 uM measured after 0.5 to 30 mins in presence of NADPH by LC-MS/MS analysis. Format: ADME, Microsome. The settings on record: time 0.5-30 min, read-out: CLH. Background: Liver microsomes are a subcellular fraction often used to study metabolism.
Data set [9] in a line: Apparent permeability across apical to basolateral side in MDCKII-MDR1 cells at 10 uM measured after 60 mins by LC-MS/MS analysis. Format: ADME, cell-based, Canis lupus familiaris. The settings on record: dog, MDCK-MDR1.
A short description of data set [10]: Half life in BALB/c mouse at 1 mg/kg, iv administered as bolus dose by LC-MS/MS analysis. Format: ADME, organism-based. The settings on record: in vivo.
Data set [11] is described as follows: Oral bioavailability in BALB/c mouse at 5 mg/kg administered via gavage by LC-MS/MS analysis. Format: ADME, organism-based. The note with it: in vivo.
The nature of data set [12]: Dissociation constant, pKa of compound at 33 uM by UV-vis spectroscopy. Type of data set: physicochemical.

As usually defined, the IC50 is the concentration that inhibits the measured activity by half. The term logD denotes the decadic logarithm of the distribution of all forms, ionised or not, between an organic phase and buffer at a given pH. The term Papp A→B denotes the apparent permeability from the apical to the basolateral side of a cell layer. In general, half-life refers to the time needed for the level to fall by half in the phase considered. Lower therefore signals rapid decline. A word on the bioavailability: it is dose-corrected exposure relative to a reference, in per cent. Low readings indicate little systemic uptake, high ones much systemic uptake. A word on the pKa: it is the negative logarithm of the acid dissociation constant. Read a low pKa as a group that gives up its proton readily.

Values after ≈ are worked out from the molar mass of the structure shown.

Voltage-gated inwardly rectifying potassium channel KCNH2, sequence (Q12809 whole entry): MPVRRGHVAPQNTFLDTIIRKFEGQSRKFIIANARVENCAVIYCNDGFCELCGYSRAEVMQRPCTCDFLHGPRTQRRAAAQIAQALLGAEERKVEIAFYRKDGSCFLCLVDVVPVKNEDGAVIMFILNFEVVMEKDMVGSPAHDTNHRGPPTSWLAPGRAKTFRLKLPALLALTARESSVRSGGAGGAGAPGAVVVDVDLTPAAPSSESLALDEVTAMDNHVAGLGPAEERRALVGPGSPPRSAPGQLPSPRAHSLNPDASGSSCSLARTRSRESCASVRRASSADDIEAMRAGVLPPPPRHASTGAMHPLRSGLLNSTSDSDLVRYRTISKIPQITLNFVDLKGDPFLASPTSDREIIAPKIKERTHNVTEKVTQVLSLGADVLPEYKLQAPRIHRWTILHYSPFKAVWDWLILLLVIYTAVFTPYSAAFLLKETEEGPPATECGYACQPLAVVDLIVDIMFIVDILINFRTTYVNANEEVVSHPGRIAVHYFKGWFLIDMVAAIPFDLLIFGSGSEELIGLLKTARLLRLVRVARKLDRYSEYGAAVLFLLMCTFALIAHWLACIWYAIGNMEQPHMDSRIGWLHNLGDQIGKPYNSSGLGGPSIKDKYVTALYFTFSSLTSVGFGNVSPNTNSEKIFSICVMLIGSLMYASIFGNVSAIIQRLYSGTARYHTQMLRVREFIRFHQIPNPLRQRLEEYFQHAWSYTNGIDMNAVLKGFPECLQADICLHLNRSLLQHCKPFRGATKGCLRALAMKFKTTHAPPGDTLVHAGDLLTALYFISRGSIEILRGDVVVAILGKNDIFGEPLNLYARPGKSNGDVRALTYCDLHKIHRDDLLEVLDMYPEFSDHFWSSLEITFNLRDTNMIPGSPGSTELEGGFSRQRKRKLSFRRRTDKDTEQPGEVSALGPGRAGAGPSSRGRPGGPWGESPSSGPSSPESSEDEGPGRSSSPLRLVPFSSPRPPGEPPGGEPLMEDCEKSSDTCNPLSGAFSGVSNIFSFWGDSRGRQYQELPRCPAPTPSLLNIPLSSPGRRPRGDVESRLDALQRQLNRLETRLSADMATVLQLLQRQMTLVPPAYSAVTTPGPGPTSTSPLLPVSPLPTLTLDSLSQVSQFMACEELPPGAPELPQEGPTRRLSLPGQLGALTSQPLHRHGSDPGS
Son of sevenless homolog 1, sequence (Q07889 whole entry, looked up, stated change not applied, the tested form may be a part): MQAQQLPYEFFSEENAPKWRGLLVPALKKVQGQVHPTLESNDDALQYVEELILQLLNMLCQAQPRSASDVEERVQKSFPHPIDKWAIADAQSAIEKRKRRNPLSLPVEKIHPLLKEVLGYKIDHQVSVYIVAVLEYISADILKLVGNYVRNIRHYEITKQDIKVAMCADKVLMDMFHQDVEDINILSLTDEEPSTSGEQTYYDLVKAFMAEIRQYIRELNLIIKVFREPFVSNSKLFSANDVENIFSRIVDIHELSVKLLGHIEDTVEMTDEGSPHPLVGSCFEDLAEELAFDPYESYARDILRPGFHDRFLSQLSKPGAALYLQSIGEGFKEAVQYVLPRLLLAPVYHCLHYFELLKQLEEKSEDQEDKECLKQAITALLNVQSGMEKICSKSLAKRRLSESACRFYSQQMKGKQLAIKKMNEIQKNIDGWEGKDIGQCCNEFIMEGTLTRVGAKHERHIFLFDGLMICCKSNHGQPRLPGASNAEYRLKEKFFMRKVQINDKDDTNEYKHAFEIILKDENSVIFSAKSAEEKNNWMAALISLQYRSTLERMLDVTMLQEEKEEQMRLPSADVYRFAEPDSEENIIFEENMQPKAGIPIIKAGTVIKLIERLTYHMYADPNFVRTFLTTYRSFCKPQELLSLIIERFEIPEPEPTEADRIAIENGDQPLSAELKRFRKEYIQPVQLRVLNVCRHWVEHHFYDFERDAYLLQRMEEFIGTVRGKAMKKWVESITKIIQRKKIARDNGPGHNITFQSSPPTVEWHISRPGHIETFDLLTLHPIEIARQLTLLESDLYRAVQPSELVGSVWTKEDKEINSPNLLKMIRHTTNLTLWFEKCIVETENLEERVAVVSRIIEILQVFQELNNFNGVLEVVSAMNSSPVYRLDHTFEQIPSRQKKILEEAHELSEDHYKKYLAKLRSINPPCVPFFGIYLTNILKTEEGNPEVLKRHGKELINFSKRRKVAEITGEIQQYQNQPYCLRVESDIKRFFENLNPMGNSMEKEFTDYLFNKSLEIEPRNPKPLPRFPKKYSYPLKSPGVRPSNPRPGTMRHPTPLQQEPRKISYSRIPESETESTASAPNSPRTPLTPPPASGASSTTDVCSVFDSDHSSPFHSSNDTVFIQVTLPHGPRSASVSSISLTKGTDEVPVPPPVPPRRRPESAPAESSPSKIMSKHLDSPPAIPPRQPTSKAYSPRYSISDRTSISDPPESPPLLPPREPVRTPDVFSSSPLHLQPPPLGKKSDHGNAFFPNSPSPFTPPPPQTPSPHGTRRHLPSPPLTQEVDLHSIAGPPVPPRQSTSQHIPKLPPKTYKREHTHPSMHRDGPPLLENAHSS
Description for NCI-H358: Antiproliferative activity against human NCI-H358 cells assessed as reduction in cell viability incubated for 10 days with media refreshed for every 5 days by celltiter-glo assay

`COc1cc2nc(C)nc(N[C@H](C)c3cc(N)cc(C(F)(F)F)c3)c2cc1O[C@H]1CCOC1`: 32 nM corresponded to half-maximal inhibition in the data set on NCI-H358 (IC50).
Regarding `Oc1cc(-c2ncc3c(N4C[C@H]5CC[C@@H](C4)N5)nc(OCC45CCCN4CCC5)nc3c2F)c2ccccc2c1`, the half-maximal inhibitory concentration (IC50) in data set [1] was < 2 nM.
In data set [2], `C[C@@H](Nc1nc2c(c3cc(=O)n(C4CC4)cc13)CC(N1CCC1)CC2)c1cccc(C(F)F)c1F` (some centres undefined) returned a CL free of 353 mL/min/kg. The CLint scaled at 1 µM came out at 49 mL/min/kg in data set [3] and 9 mL/min/kg in data set [8]. Also, the Vd in data set [4] was 4.1 L/kg. Moreover, the pH-dependent lipophilicity (logD) at 2 h in data set [5] is 2.6. The solubility kinetic at 2 h, 300 µM in data set [6] was determined as 226 µM (≈ 109 µg/mL). Besides, the IC50 is 1100 nM in [7] and 19 nM in the data set on NCI-H358. For the same molecule, in [9], the apparent permeability from apical to basolateral (Papp A→B) at 1 h, 10 µM was 0.3 ×10⁻⁶ cm/s. This molecule had a half-life in data set [10] of 1.1 h. The bioavailability in [11] worked out at 2%.
On to `C[C@@H](Nc1nc2c(c3cc(=O)n(C4CCOCC4)cc13)CC(N1CCC1)CC2)c1cccc(C(F)F)c1F` (some centres undefined), for which, in data set [12], the pKa at 33 µM turned out to be 9.3.
The same measure, in the same setting: the result for `COC1CN(C2CCc3nc(N[C@H](C)c4cccc(C(F)F)c4F)c4cn(C5CCOCC5)c(=O)cc4c3C2)C1` (some centres undefined) reads 7.8.
For `Cc1c([C@@H](C)Nc2nc3c(c(=O)n2C)CNCC3)cccc1C(F)(F)F`, the Papp A→B at 1 h, 10 µM in data set [9] came out at 3.2 ×10⁻⁶ cm/s.
Molecule `C[C@@H](Nc1nc2c(c3cc(=O)n(C4CCOCC4)cc13)CC(N1CC(F)(F)C1)CC2)c1cccc(C(F)F)c1F` (some centres undefined) returned a pKa at 33 µM in data set [12] of 6.1.
`Cc1c([C@@H](C)Nc2nc3c(c4cc(=O)n(C5CCOCC5)cc24)CNCC3)cccc1C(F)(F)F`: the values for the CLint scaled at 1 µM in data set [3] and in data set [8] were 46 mL/min/kg and 11 mL/min/kg, respectively. For the same molecule, the log distribution coefficient (logD) at 2 h in data set [5] is 2.9. In [9], the Papp A→B at 1 h, 10 µM stood at 0.2 ×10⁻⁶ cm/s. In [12], this molecule had a pKa at 33 µM of 8.8.
On to `C[C@@H](Nc1nc2c(c3cc(=O)n(C4CC4)cc13)CC(N1CC[C@@H](F)C1)CC2)c1cccc(C(F)F)c1F` (some centres undefined), for which, in data set [2], the CL free is 816 mL/min/kg. Further, the CLint scaled at 1 µM in data set [3] is 143 mL/min/kg; in data set [8], 56 mL/min/kg. The Vd in [4] is 4.6 L/kg. The log distribution coefficient (logD) at 2 h in data set [5] was determined as 3.7. In addition, in data set [6], the solubility kinetic at 2 h, 300 µM is 90 µM (≈ 46.3 µg/mL). Also, the 50% inhibitory concentration (IC50) in [7] is 1100 nM; with NCI-H358, 32 nM. In addition, in data set [9], the Papp A→B at 1 h, 10 µM is 0.2 ×10⁻⁶ cm/s. The half-life in data set [10] is 4 h. In addition, the bioavailability in [11] was 2%.
In the data set with NCI-H358, `Cc1c(C#N)cccc1[C@@H](C)Nc1nnc(C)c2cnc(N3CCOCC3)cc12` [MRTX-0902] had a 50% inhibitory concentration (IC50) of 22 nM.

The values are drawn from ChEMBL document CHEMBL6177949, “Exploiting Solvent Exposed Salt-Bridge Interactions for the Discovery of Potent Inhibitors of SOS1 Using Free-Energy Perturbation Simulations” (ACS Med Chem Lett, 2025).
